Laboratory results published in ChEMBL document CHEMBL5579892, “Rational Design, Synthesis, and Structure-Activity Relationship of a Novel Isoquinolinone-Based Series of HBV Capsid Assembly Modulators Leading to the Identification of Clinical Candidate AB-836” (J Med Chem, 2024).
pEC50: −log10 of the molar value. Converted amounts (≈) assume the structure as drawn.

Experiments:
[1] = Cytotoxicity against human HepDE19 cells by CellTiter-Glo analysis; type: toxicity, cell-based
[2] = Kinetic solubility in PBS at pH 7.4; type: physicochemical; conditions: read-out: Kinetic_solubility
Hepatitis B virus = experiment: Antiviral activity against HBV infected in HepDE19 cells; type: functional, organism-based
[3] = Microsomal stability in human liver microsomes assessed as intrinsic clearance; type: ADME, Microsome; conditions: read-out: CLH
[4] = Microsomal stability in mouse liver microsomes assessed as intrinsic clearance; type: ADME, Microsome; conditions: read-out: CLH

solubility kinetic [2] | pEC50 (Hepatitis B virus) | microsomal CLint [3] | microsomal CLint [4] | SMILES | CC50 [1]
< 4 µM | 7.07 |  |  | C[C@H](c1c[nH]c(=O)c2c(Cl)cccc12)N(C)C(=O)Nc1ccc(F)c(Cl)c1 | > 25000 nM
 | 6.12 |  |  | C[C@H](c1c[nH]c(=O)c2cc(F)c(F)cc12)N(C)C(=O)c1nc2ccccc2[nH]1 | > 25000 nM
 | 5.05 |  |  | COc1ncc(CNC(=O)Nc2ccc(F)c(Cl)c2)c2ccccc12 | 
 | 7.04 | 69 µL/min/mg | 238 µL/min/mg | COCCN(C(=O)Nc1ccc(F)c(Cl)c1)C(C)c1c[nH]c(=O)c2ccccc12 (stereo not given) | > 25000 nM
 | 8.05 | 110 µL/min/mg | 190 µL/min/mg | CCCN(C(=O)Nc1ccc(F)c(Cl)c1)[C@H](C)c1c[nH]c(=O)c2ccccc12 | > 25000 nM
62 µM (≈ 23.8 µg/mL) | 7.66 | 28 µL/min/mg | 375 µL/min/mg | C[C@H](c1c[nH]c(=O)c2cc(F)c(F)cc12)N(C)C(=O)[C@@H]1Cc2ccccc2N1 | > 25000 nM
 | 7.26 | 152 µL/min/mg | 172 µL/min/mg | CC(c1c[nH]c(=O)c2ccccc12)N(C(=O)Nc1ccc(F)c(Cl)c1)C1CC1 (stereo not given) | > 25000 nM
< 4 µM | 6.74 |  |  | COc1ccc2c([C@@H](C)N(C)C(=O)Nc3ccc(F)c(Cl)c3)c[nH]c(=O)c2c1 | > 25000 nM
 | 6.33 |  |  | CN(Cc1c[nH]c(=O)c2ccccc12)C(=O)Nc1ccc(F)c(Cl)c1 | > 25000 nM
 | 5.70 |  |  | COc1ncc(CN(C)C(=O)Nc2ccc(F)c(Cl)c2)c2ccccc12 | 
> 200 µM | 7.43 | 30 µL/min/mg | 35 µL/min/mg | C[C@H](c1c[nH]c(=O)c2cc(F)c(F)cc12)N(C)C(=O)Nc1cccc(F)c1 | > 25000 nM
98 µM (≈ 38.4 µg/mL) | 7.70 | 28 µL/min/mg | 37 µL/min/mg | C[C@H](c1c[nH]c(=O)c2cc(F)ccc12)N(C)C(=O)Nc1ccc(F)c(Cl)c1 | > 25000 nM
97 µM (≈ 39.8 µg/mL) | 7.72 | 25 µL/min/mg | 25 µL/min/mg | C[C@H](c1c[nH]c(=O)c2c(F)cc(F)cc12)N(C)C(=O)Nc1ccc(F)c(Cl)c1 | > 25000 nM
179 µM (≈ 70.4 µg/mL) | 7.89 | 25 µL/min/mg | 37 µL/min/mg | C[C@H](c1c[nH]c(=O)c2cc(F)c(F)cc12)N(C)C(=O)Nc1ccc(F)c(F)c1 | > 25000 nM
 | 6.96 |  |  | C[C@H](c1c[nH]c(=O)c2cc(F)c(F)cc12)N(C)C(=O)Nc1ccccc1 | > 25000 nM
5 µM (≈ 2.09 µg/mL) | 7.92 | 14 µL/min/mg | 22 µL/min/mg | C[C@H](c1c[nH]c(=O)c2cc(F)c(F)cc12)N(C)C(=O)c1cc2cc(F)c(F)cc2[nH]1 | > 25000 nM
 | 6.89 |  |  | COCCCN(Cc1c[nH]c(=O)c2ccccc12)C(=O)Nc1ccc(F)c(Cl)c1 | > 25000 nM
 | 7.22 |  |  | CCCN(Cc1c[nH]c(=O)c2ccccc12)C(=O)Nc1ccc(F)c(Cl)c1 | > 25000 nM
 | 7.49 | 54 µL/min/mg | 182 µL/min/mg | COCCCN(C(=O)Nc1ccc(F)c(Cl)c1)C(C)c1c[nH]c(=O)c2ccccc12 (stereo not given) | > 25000 nM
72 µM (≈ 28.2 µg/mL) | 7.74 | 32 µL/min/mg | 30 µL/min/mg | C[C@H](c1c[nH]c(=O)c2cc(F)c(F)cc12)N(C)C(=O)Nc1cccc(Cl)c1 | > 25000 nM
 | 7.60 | 62 µL/min/mg | 32 µL/min/mg | CCN(C(=O)Nc1ccc(F)c(Cl)c1)C(C)c1c[nH]c(=O)c2ccccc12 (stereo not given) | > 25000 nM

solubility kinetic [2] | pEC50 (Hepatitis B virus) | microsomal CLint [3] | microsomal CLint [4] | SMILES | CC50 [1]
 | 6.09 |  |  | O=C(Nc1ccc(F)c(Cl)c1)N(Cc1c[nH]c(=O)c2ccccc12)C1CC1 | > 25000 nM
95 µM (≈ 37 µg/mL) | 8.15 | 42 µL/min/mg | 60 µL/min/mg | Cc1cc(NC(=O)N(C)[C@H](C)c2c[nH]c(=O)c3cc(F)c(F)cc23)ccc1F | > 25000 nM
18 µM (≈ 7.35 µg/mL) | 6.92 |  |  | C[C@H](c1c[nH]c(=O)c2ccc(Cl)cc12)N(C)C(=O)Nc1ccc(F)c(Cl)c1 | > 25000 nM
 | 6.70 |  |  | CC(c1c[nH]c(=O)c2cc(Cl)ccc12)N(C)C(=O)Nc1ccc(F)c(Cl)c1 (racemic) | > 25000 nM
92 µM (≈ 37.7 µg/mL) | 7.82 | 28 µL/min/mg | 32 µL/min/mg | C[C@H](c1c[nH]c(=O)c2c(F)c(F)ccc12)N(C)C(=O)Nc1ccc(F)c(Cl)c1 | > 25000 nM
 | 6.52 |  |  | C[C@H](c1c[nH]c(=O)c2cc(F)c(F)cc12)N(C)C(=O)[C@H]1Cc2ccccc2N1 | > 25000 nM
42 µM (≈ 17.2 µg/mL) | 8.15 | 32 µL/min/mg | 23 µL/min/mg | C[C@H](c1c[nH]c(=O)c2cc(F)c(F)cc12)N(C)C(=O)Nc1ccc(F)c(Cl)c1 | > 25000 nM
 | 8.00 | 71 µL/min/mg | 185 µL/min/mg | CC(c1c[nH]c(=O)c2ccccc12)N(CCCO)C(=O)Nc1ccc(F)c(Cl)c1 (stereo not given) | > 25000 nM
146 µM (≈ 57.2 µg/mL) | 7.40 |  |  | C[C@H](c1c[nH]c(=O)c2c(F)cccc12)N(C)C(=O)Nc1ccc(F)c(Cl)c1 | > 25000 nM
 | 6.33 |  |  | COCCN(Cc1c[nH]c(=O)c2ccccc12)C(=O)Nc1ccc(F)c(Cl)c1 | > 25000 nM
 | 7.10 |  |  | CCCCN(Cc1c[nH]c(=O)c2ccccc12)C(=O)Nc1ccc(F)c(Cl)c1 | > 25000 nM
 | 8.15 | 260 µL/min/mg | > 300 µL/min/mg | CC(C)CN(C(=O)Nc1ccc(F)c(Cl)c1)C(C)c1c[nH]c(=O)c2ccccc12 (stereo not given) | > 25000 nM
190 µM (≈ 71.3 µg/mL) | 7.62 | 17 µL/min/mg | 35 µL/min/mg | C[C@H](c1c[nH]c(=O)c2cc(F)c(F)cc12)N(C)C(=O)Nc1ccc(F)cc1 | > 25000 nM
 | 6.54 |  |  | C[C@H](c1c[nH]c(=O)c2cc(F)c(F)cc12)N(C)C(=O)Nc1cccc(F)c1F | > 25000 nM
 | 5.82 |  |  | COc1cccc2c(=O)[nH]cc([C@@H](C)N(C)C(=O)Nc3ccc(F)c(Cl)c3)c12 | > 25000 nM
 | 8.22 | 143 µL/min/mg | 243 µL/min/mg | CCCCN(C(=O)Nc1ccc(F)c(Cl)c1)C(C)c1c[nH]c(=O)c2ccccc12 (stereo not given) | > 25000 nM
12 µM (≈ 4.79 µg/mL) | 7.66 | 13 µL/min/mg | 33 µL/min/mg | C[C@H](c1c[nH]c(=O)c2cc(F)c(F)cc12)N(C)C(=O)c1cc2ccc(F)cc2[nH]1 | > 25000 nM
 | 5.17 |  |  | O=C(NCc1c[nH]c(=O)c2ccccc12)Nc1ccc(F)c(Cl)c1 | > 25000 nM
 | 6.80 |  |  | CCN(Cc1c[nH]c(=O)c2ccccc12)C(=O)Nc1ccc(F)c(Cl)c1 | > 25000 nM
42 µM (≈ 17 µg/mL) | 5.85 |  |  | COc1ccc2c(=O)[nH]cc([C@@H](C)N(C)C(=O)Nc3ccc(F)c(Cl)c3)c2c1 | > 25000 nM
82 µM (≈ 32.1 µg/mL) | 7.49 |  |  | C[C@H](c1c[nH]c(=O)c2ccc(F)cc12)N(C)C(=O)Nc1ccc(F)c(Cl)c1 | > 25000 nM
